According to the supplement of paper PMC10307832:

Key:
Assay in all cases: relative viability (nuclei count vs DMSO), 5 days (fraction); higher = more cells survive
[1] = compound: C1=CC2=C(C=C(C(=C2N=C1)O)N=NC3=CC4=C(C=C3)C=C(C=C4)S(=O)(=O)O)S(=O)(=O)O + C[C@]1(O)C[C@@H](c2nc(-c3ccc4ccc(-c5ccccc5)nc4c3)c3c(N)nccn32)C1 [Linsitinib] (partner 1 µM)
Summary of the method: (§1)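 Relative viability divides the nuclei count in treated wells by that in vehicle wells. Lung cancer cell lines were seeded in 1536-well plates, dosed by pin tool the next day, and fixed and stained after 5 days in one step with final 0.05% Triton X-100, 1% formaldehyde and 1 ug/ml Hoechst. Dosing was a single drug or a fixed anchor-drug dose plus five library-drug doses (not always all listed) in √10 steps, and values are medians of duplicate plates imaged at 4×.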

[2] = compound: C1=CC2=C(C=C(C(=C2N=C1)O)N=NC3=CC4=C(C=C3)C=C(C=C4)S(=O)(=O)O)S(=O)(=O)O + Cc1nc(Nc2ncc(C(=O)Nc3c(C)cccc3Cl)s2)cc(N2CCN(CCO)CC2)n1 [Dasatinib] (partner 0.075 µM)
Summary of the method: as §1

[3] = compound: C1=CC2=C(C=C(C(=C2N=C1)O)N=NC3=CC4=C(C=C3)C=C(C=C4)S(=O)(=O)O)S(=O)(=O)O + Nc1nc2[nH]cc(CCc3ccc(C(=O)N[C@@H](CCC(=O)O)C(=O)O)cc3)c2c(=O)[nH]1 [Pemetrexed] (partner 0.2 µM)
Summary of the method: as §1

AT-7519 + Lapatinib = compound: O=C(NC1CCNCC1)c1n[nH]cc1NC(=O)c1c(Cl)cccc1Cl [AT-7519] + CS(=O)(=O)CCNCc1ccc(-c2ccc3ncnc(Nc4ccc(OCc5cccc(F)c5)c(Cl)c4)c3c2)o1 [Lapatinib] (partner 2 µM)
Summary of the method: as §1

Cell Line	relative viability ([1]; first compound 0.08 µM)	relative viability ([1]; first compound 0.253 µM)	relative viability ([1]; first compound 0.8 µM)	relative viability ([1]; first compound 2.53 µM)	relative viability ([1]; first compound 8 µM)	relative viability ([2]; first compound 0.08 µM)	relative viability ([2]; first compound 0.253 µM)	relative viability ([2]; first compound 0.8 µM)	relative viability ([2]; first compound 2.53 µM)	relative viability ([2]; first compound 8 µM)	relative viability ([3]; first compound 0.08 µM)	relative viability ([3]; first compound 0.253 µM)	relative viability ([3]; first compound 0.8 µM)	relative viability ([3]; first compound 2.53 µM)	relative viability ([3]; first compound 8 µM)	relative viability (AT-7519 + Lapatinib; first compound 0.01 µM)	relative viability (AT-7519 + Lapatinib; first compound 0.03162 µM)	relative viability (AT-7519 + Lapatinib; first compound 0.3162 µM)	relative viability (AT-7519 + Lapatinib; first compound 1 µM)
HCC-15	0.978	0.874	0.788	0.897	0.878	0.684	0.551	0.609	0.584	0.624	0.221	0.229	0.213	0.235	0.24	0.891	0.828	0.692	0.5
COR-L23	1.01	0.927	0.925	0.87	0.753	0.523	0.477	0.442	0.582	0.576	0.206	0.202	0.2	0.199	0.192	1.14	0.786	0.325	0.121
HCC-78	0.614	0.543	0.496	0.469	0.399	0.404	0.337	0.426	0.352	0.394	0.915	0.922	0.902	0.887	0.908	0.837	0.79	1.08	0.878
NCI-H2087	1	1.12	0.82	0.964	1.15	0.962	0.872	0.715	0.847	0.884	0.643	0.599	0.567	0.602	0.7	1.2	1.11	0.998	0.185
BEN	1.11	0.887	0.799	0.94	0.827	0.25	0.31	0.296	0.347	0.322	0.745	0.736	0.76	0.867	0.61	0.834	0.68	0.781	0.55
EKVX	1.15	0.956	0.891	1.01	0.927	0.314	0.648	0.556	0.743	0.633	0.41	0.369	0.393	0.397	0.388	0.203	0.198	0.186	0.172
LXF-289	1.05	0.977	0.957	1.02	0.917	0.196	0.215	0.205	0.208	0.229	0.919	0.869	0.841	0.962	0.885	0.929	0.902	0.953	0.912
NCI-H650	0.652	0.755	0.884	0.769	0.576	0.412	0.433	0.496	0.462	0.342	1.04	0.922	0.956	0.936	0.791	0.923	0.841	0.781	0.75
NCI-H2085	1.06	0.927	0.978	0.821	0.892	0.277	0.253	0.254	0.208	0.291	0.923	0.864	0.846	0.903	0.92	0.845	0.776	0.713	0.488
NCI-H1793	1.29	0.678	–	1.04	0.964	0.372	0.403	0.364	0.367	0.372	1	0.844	0.799	0.841	0.888	0.554	0.713	0.421	0.226
LC-2-ad	0.623	0.839	0.861	0.805	0.918	0.799	0.593	0.555	0.548	0.687	0.28	0.278	0.265	0.261	0.274	1.03	1.05	0.922	0.744
COR-L 105	0.931	0.939	1.04	0.985	1.01	0.307	0.337	0.445	0.348	0.278	1.3	1.14	1.21	1.04	1.1	0.397	0.397	0.319	0.293
NCI-H1355	0.951	0.79	0.839	0.863	0.817	0.764	0.754	0.708	0.77	0.665	1.13	1.05	1.02	1.1	0.872	0.959	0.911	1.12	0.989
H3255	0.95	0.899	0.948	1.04	0.911	0.346	0.375	0.297	0.34	0.477	0.545	0.576	0.559	0.556	0.57	0.282	0.232	0.294	0.212
NCI-H1993	0.757	0.694	0.653	0.702	0.717	0.579	0.648	0.633	0.594	0.566	0.511	0.539	0.6	0.589	0.617	0.808	0.787	0.632	0.699
NCI-H1734	0.909	0.877	0.816	0.884	0.897	0.583	0.346	0.428	0.44	0.48	0.387	0.43	0.417	0.421	0.443	0.893	1.03	0.928	0.427
HOP-62	0.992	0.893	1.01	1	0.926	0.69	0.657	0.676	0.588	0.653	0.263	0.279	0.312	0.349	0.325	1.03	0.963	1.06	1.05
LOU-NH91	0.991	0.988	0.957	0.973	0.891	0.579	0.585	0.53	0.597	0.508	0.365	0.38	0.393	0.361	0.36	0.786	0.736	0.795	0.673
NCI-H2228	0.653	0.611	0.598	0.634	0.777	0.639	0.469	0.464	0.514	0.49	0.305	0.312	0.328	0.334	0.324	1.02	1.11	0.669	0.481
PC-14	1.03	0.936	0.962	0.948	1.1	0.257	0.288	0.296	0.31	0.281	0.127	0.129	0.145	0.132	0.11	0.269	0.302	0.313	0.296
NCI-H1437	1.14	1.06	0.99	1.01	1.03	0.351	0.402	0.43	0.383	0.301	0.299	0.326	0.334	0.265	0.308	0.77	0.71	0.514	0.22
NCI-H460	1.08	0.809	0.757	0.889	0.665	0.515	0.536	0.492	0.489	0.522	0.0636	0.0585	0.066	0.0648	0.0698	1.71	0.877	0.0532	0.013
NCI-H1666	0.876	0.831	0.74	0.84	0.673	0.866	0.755	0.793	0.816	0.741	0.824	0.85	0.827	0.891	0.892	0.657	0.579	0.327	0.347
NCI-H1651	1.01	0.966	1.06	0.922	0.925	0.451	0.3	0.416	0.406	0.466	0.678	0.534	0.601	0.609	0.54	0.862	0.784	0.607	0.534
NCI-H1755	1.08	0.969	0.954	1.05	0.991	0.483	0.475	0.455	0.433	0.536	0.526	0.418	0.459	0.489	0.425	1.02	1.03	0.948	1.11
NCI-H661	0.74	0.57	0.489	0.498	0.512	0.938	0.877	0.903	0.93	0.817	0.891	0.925	0.893	0.945	0.901	0.348	0.383	0.385	0.322
HARA	1.01	1.08	0.937	1.06	0.957	0.284	0.274	0.274	0.296	0.327	0.212	0.214	0.252	0.206	0.237	0.804	0.622	0.604	0.681
NCI-H596	1.02	1.07	1.1	1.14	1.15	0.651	0.685	0.554	0.727	0.703	0.557	0.452	0.52	0.493	0.486	1.05	1.11	1.02	0.767
